From paper PMC12311865, “In Vitro Evaluation of the Potential Interactions of Zearalenone-14-sulfate and Zearalenone-14-glucuronide with Human Cytochrome P450 Enzymes, Organic Anion Transporting Polypeptides, and ATP-Binding Cassette Multidrug Transporters” (ACS Omega, 2025) come the findings set out here.

One data set has as its target T1, CYP2C9 (Homo sapiens, UniProt P11712).
T1 construct: purchased Merck
Nature of the data set: in vitro. The settings on record: human, pH 7.5. It counts as biochemical. As to the method:
Inhibitory actions of ZEN conjugates on CYP2C9 and CYP3A4 enzymes were examined employing CypExpress Cytochrome P450 human kits. , Briefly, incubates (200 μL) contained the substrate (5 μM; diclofenac for CYP2C9 and testosterone for CYP3A4), the CypExpress reagent (6 mg/mL of CYP2C9 kit or 15 mg/mL of CYP3A4 kit; also including the glucose-6-phosphate dehydrogenase enzyme), and the test compounds (each 20 μM) in 0.05 M potassium phosphate buffer (pH 7.5). CYP3A4 assay was supplemented with additional G6P and NADP^+ (both 400 μM). Enzyme assays were started with the addition of the enzyme. After 120 min (CYP2C9) or 180 min (CYP3A4) incubation at 700 rpm and 30 °C in a thermomixer, the reaction was stopped with 100 μL of ice-cold methanol. Then, the samples were centrifuged for 10 min at 14,000g and room temperature. The supernatants were gently removed and directly analyzed by HPLC (see Section ).
Diclofenac and 4′-hydroxydiclofenac (CYP2C9 assay) were quantified using the previously reported HPLC-UV assay, , without modification. Briefly, the isocratic elution, with 1.0 mL/min flow rate, was performed with orthophosphoric acid (6 mM) and acetonitrile (48:52 v/v %) mobile phase, applying a Security Guard (C8, 4.0 × 3.0 mm; Phenomenex, Torrance, CA) precolumn and a Mediterranea Sea8 (C8, 150 × 4.6 mm, 5 μm; Teknokroma, Barcelona, Spain) analytical column at room temperature (injected volume: 20 μL). Diclofenac and 4′-hydroxydiclofenac were detected at 275 nm.

A further data set deals with T2, MDR1 (Homo sapiens, UniProt P08183).
T2 construct: made in house; host or cells: Sf9 insect cells (baculovirus)
T2 sequence (P08183 whole entry): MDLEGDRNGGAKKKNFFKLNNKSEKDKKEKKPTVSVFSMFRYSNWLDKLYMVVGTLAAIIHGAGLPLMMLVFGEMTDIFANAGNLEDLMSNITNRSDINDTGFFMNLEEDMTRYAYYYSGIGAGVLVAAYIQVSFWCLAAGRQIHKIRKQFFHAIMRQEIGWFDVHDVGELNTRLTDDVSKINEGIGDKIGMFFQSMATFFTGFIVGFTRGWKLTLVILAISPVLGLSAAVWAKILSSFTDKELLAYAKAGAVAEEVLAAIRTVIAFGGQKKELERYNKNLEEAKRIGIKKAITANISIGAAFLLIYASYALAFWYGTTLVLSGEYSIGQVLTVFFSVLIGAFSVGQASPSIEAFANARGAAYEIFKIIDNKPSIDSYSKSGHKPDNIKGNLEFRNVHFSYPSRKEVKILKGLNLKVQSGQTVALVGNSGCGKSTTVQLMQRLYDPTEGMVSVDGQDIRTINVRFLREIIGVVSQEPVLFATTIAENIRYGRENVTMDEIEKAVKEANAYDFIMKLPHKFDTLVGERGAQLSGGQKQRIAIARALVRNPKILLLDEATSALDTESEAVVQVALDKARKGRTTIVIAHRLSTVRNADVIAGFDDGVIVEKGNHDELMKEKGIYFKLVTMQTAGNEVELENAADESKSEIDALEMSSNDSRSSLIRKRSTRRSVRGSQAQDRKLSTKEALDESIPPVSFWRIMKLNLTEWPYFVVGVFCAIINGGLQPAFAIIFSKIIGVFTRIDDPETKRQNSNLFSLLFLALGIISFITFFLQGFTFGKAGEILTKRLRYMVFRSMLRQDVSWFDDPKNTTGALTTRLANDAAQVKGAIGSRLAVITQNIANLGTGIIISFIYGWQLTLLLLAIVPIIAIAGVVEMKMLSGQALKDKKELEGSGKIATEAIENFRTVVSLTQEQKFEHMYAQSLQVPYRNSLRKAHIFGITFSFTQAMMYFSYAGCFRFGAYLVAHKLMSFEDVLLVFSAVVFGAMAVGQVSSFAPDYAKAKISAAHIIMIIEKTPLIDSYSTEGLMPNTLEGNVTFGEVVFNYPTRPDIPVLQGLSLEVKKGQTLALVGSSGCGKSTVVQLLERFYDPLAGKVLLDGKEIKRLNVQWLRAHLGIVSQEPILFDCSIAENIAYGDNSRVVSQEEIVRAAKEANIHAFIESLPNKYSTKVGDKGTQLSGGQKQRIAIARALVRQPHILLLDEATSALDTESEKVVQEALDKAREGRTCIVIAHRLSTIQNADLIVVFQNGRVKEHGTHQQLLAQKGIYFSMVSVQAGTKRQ
Nature of the data set: MDR1-mediated NMQ vesicular transport (Sf9 membrane vesicles). It counts as biochemical. The settings on record: human; 30 μM; NMQ 5 μM; read-out: inhibition of MDR1-mediated, ATP-dependent uptake of NMQ. As to the method:
Experiments were performed in insect membrane vesicles, as described previously. Briefly, human MDR1, BCRP, and MRP2 were expressed in Sf9 insect cells by baculoviruses. On the third day of infection, cells were collected and membrane vesicles were obtained by mechanical disruption and differential centrifugation. To get full activity for BCRP, the cholesterol levels of the vesicles were adjusted to the level of mammalian membranes. Vesicles were stored at −80 °C, and the total protein content of the preparations was measured by the Lowry method (used as a reference for the quantity). […] A 100 μL volume of fluorescence stabilizer was added to the samples (DMSO for LY, 0.1 M H2SO4 for NMQ, and 0.1 M NaOH for CDCF). Fluorescence of samples was measured by plate readers (Victor X3 and Enspire PerkinElmer; Waltham, MA) at appropriate wavelengths (filters in the Victor X3 reader were 405/535 nm for LY and 492/635 nm for CDCF; while in the Enspire reader, NMQ was measured at 360/430 nm excitation/emission wavelengths). ABC-related transport was calculated by subtracting passive uptake measured without Mg-ATP from values measured in the presence of Mg-ATP.

Each structure is given as a SMILES string.

T1 sequence (P11712 whole entry): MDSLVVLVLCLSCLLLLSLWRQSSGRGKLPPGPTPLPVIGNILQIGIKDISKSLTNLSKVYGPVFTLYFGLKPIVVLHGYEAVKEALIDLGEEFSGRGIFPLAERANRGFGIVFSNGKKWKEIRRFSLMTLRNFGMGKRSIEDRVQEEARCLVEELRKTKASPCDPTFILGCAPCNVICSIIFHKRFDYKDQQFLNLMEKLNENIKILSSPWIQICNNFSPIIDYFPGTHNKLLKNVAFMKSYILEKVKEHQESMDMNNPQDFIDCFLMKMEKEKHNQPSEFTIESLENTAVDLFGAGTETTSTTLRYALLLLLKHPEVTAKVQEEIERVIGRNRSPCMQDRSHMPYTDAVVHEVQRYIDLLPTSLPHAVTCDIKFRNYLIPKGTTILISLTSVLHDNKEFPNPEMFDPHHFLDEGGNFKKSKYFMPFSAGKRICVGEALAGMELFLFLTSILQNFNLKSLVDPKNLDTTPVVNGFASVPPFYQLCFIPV

For `Nc1ccc(S(=O)(=O)Nc2ccnn2-c2ccccc2)cc1` [sulfaphenazole, reference compound], the “inhibition of CYP2C9 (decrease in metabolite formation)” value at CYP2C9 is “more than 90%”.

On to `COc1ccc(CCN(C)CCCC(C#N)(c2ccc(OC)c(OC)c2)C(C)C)cc1OC` (centres unmarked) [verapamil, reference compound], for which the inhibition at 10 min, 30 μM at MDR1 amounted to 97%.

By inhibition is commonly meant the drop in the measured response relative to a control, in per cent.
